Data from PubChem BioAssay (NCI).
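These data come from cells grown in 96-well plates and exposed to compound for 48 hours at five concentrations. TGI denotes the concentration required for complete inhibition of growth.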

Key:
Assay in all cases: growth of human tumour cells (NCI), 48 h
NCI-H23 lung = test system: NCI-H23 lung
SNB-75 CNS = test system: SNB-75 CNS
SK-OV-3 ovarian = test system: SK-OV-3 ovarian
HS 578T breast = test system: HS 578T breast
IGROV1 ovarian = test system: IGROV1 ovarian
MDA-MB-435 = test system: MDA-MB-435
RXF 393 renal = test system: RXF 393 renal
MDA-N = test system: MDA-N
SW-620 colon = test system: SW-620 colon
HCT-15 colon = test system: HCT-15 colon
UO-31 renal = test system: UO-31 renal
A498 renal = test system: A498 renal
RPMI-8226 leukemia = test system: RPMI-8226 leukemia
M14 melanoma = test system: M14 melanoma
OVCAR-3 ovarian = test system: OVCAR-3 ovarian
NCI/ADR-RES ovarian = test system: NCI/ADR-RES ovarian
EKVX NSCLC = test system: EKVX NSCLC

Row | Structure (SMILES) | TGI (NCI-H23 lung) [µM] | TGI (SNB-75 CNS) [µM] | TGI (SK-OV-3 ovarian) [µM] | TGI (HS 578T breast) [µM] | TGI (IGROV1 ovarian) [µM] | TGI (MDA-MB-435) [µM] | TGI (RXF 393 renal) [µM] | TGI (MDA-N) [µM] | TGI (SW-620 colon) [µM] | TGI (HCT-15 colon) [µM] | TGI (UO-31 renal) [µM] | TGI (A498 renal) [µM] | TGI (RPMI-8226 leukemia) [µM] | TGI (M14 melanoma) [µM] | TGI (OVCAR-3 ovarian) [µM] | TGI (NCI/ADR-RES ovarian) [µM] | TGI (EKVX NSCLC) [µM]
1 | N#CC(C#N)=C(N)/C(C#N)=C/c1ccc(O)c(O)c1 | > 100 | > 100 | > 100 | > 100 | > 100 | > 100 | > 100 | > 100 | > 100 | > 100 | > 100 | > 100 | > 100 | > 100 | > 100 | > 100 | > 100
2 | COc1cc(/C=C/C(=O)N[C@@H]2C(=O)N3[C@@H]2SC(C)(C)[C@@H]3C(=O)O)ccc1O | > 100 | > 100 | > 100 | > 100 |  | > 100 | > 100 | > 100 | > 100 | > 100 | > 100 | > 100 | > 100 | > 100 | > 100 | > 100 | > 100
3 | CNc1ccc(Cl)cc1C(=O)N1CCC[C@H]1CO | > 100 | > 100 | > 100 | > 100 | > 100 | > 100 | > 100 | > 100 | > 100 | > 100 | > 100 | > 100 | > 100 | > 100 | > 100 | > 100 | > 100
4 | Cc1cc(=O)[nH]c(Sc2ccc([N+](=O)[O-])cc2[N+](=O)[O-])n1 | 41.1 | 39.9 | > 100 | > 63.4 | > 100 | > 55.1 | 26.1 | 40.8 | 18.1 | 28.4 | 37.1 | > 100 | 18.7 | 32.3 | 31.2 | > 66.3 | > 57.2
5 | CNC(=O)OCC1=C(COC(=O)NC)CN(c2ccc(OC)cc2)C1 | > 100 | > 100 | > 100 | > 100 | > 100 | > 100 | > 100 | > 100 | > 100 | > 100 | > 100 | 3.9 | > 100 | > 100 | > 100 | > 100 | > 100
6 | CN(C)c1ccc(C2=C([O-])c3cc(-[n+]4ccccc4)ccc3C2=O)cc1 | > 100 | > 100 |  | > 100 | > 100 | > 100 | > 100 | > 100 | > 100 | > 100 | > 100 | > 100 | > 100 |  | > 100 | > 100 | > 100
7 | CCOC(=O)n1ccc2c(C(=O)OC)c(C(=O)OC)cc(/C(=C/C(=O)OC)C(=O)OC)c21 | > 100 | > 100 | > 100 | > 100 | > 100 | > 100 | > 100 | > 100 | > 100 |  | > 100 | > 100 | > 100 | > 100 | > 100 | > 100 | > 100
8 | O=C(O)c1ccc2[nH]c(=O)oc2c1 | > 100 | > 100 | > 100 | > 100 | > 100 | > 100 | > 100 | > 100 | > 100 | > 100 |  | > 100 | > 100 | > 100 | > 100 | > 100 | > 100
9 | O=C(/C=C/c1ccc(O)c(O)c1)O[C@H]1CCCC[C@@H]1OC(=O)/C=C/c1ccc(O)c(O)c1 | 33.7 | > 100 | 41.3 | > 100 | 55 | 27.1 | 27.6 | 26.5 | 19.5 | 35.7 | 27.8 | 43.2 | > 100 | 77.9 | 26.7 | 91.2 | 53.8
10 | Oc1c(O)c(Cc2ccccc2)c(Cc2ccccc2)c(Cc2ccccc2)c1Cc1ccccc1 | > 10 | > 10 | > 10 | > 10 | > 10 | > 10 | > 10 | > 10 | > 10 | > 10 | > 10 | > 10 | > 10 | > 10 | > 10 | > 10 | > 10
11 | C/C(=N\NC(N)=S)C(CN1CCCCC1)C(C1=C(O)c2ccccc2OC1)c1ccccc1 (stereo unspecified) | > 100 | > 100 | > 100 | > 100 | > 100 | > 100 | > 100 | > 100 | > 100 | > 100 | > 100 | > 100 | 73.6 | > 100 | > 100 | > 100 | > 100
12 | O=C1C2CCCCC2C(=O)N1n1c(Cc2ccccc2)n[nH]c1=O (stereo unspecified) | > 100 | > 100 | > 100 | > 100 | > 100 | > 100 | > 100 | > 100 | > 100 | > 100 | > 100 | > 100 | > 100 | > 100 | > 100 | > 100 | > 100
13 | O=C(Cc1ccccc1)Nc1nc2ccc(Cl)cc2c2nc(-c3ccco3)nn12 | > 100 | > 54.2 | > 100 | > 100 | > 100 | > 100 | 59.7 | > 100 | > 100 | > 100 | > 100 | > 100 | > 100 | > 100 | > 100 | > 100 | > 100
